# Read-outs that look alike come from different tables or passages of the source.
# Assays:
# [1] = format: physicochemical; conditions: 1 mg/ml, 0.1 N HCl 37° C.; for % hydrocodone, % Ketal in hydrolysis mixture: hydrocodone 1,3-propanediol ketal; for Hydrocodone, 2R,5R ketal in hydrolysis mixture: hydrocodone 2R,5R-hexanediol ketal tested separately; for Hydrocodone, 2S,5S ketal in hydrolysis mixture: hydrocodone 2S,5S-hexanediol ketal tested separately
# [2] = Hydrolysis in Simulated Gastric Fluid (SGF) at 37° C., LC/MS; conditions: from hydrocodone 2,4-pentanediol ketal isomers, 1 mg/ml, SGF 37° C.
smiles,measurement,setting,value
"COc1ccc2c3c1O[C@H]1C(=O)CC[C@H]4[C@@H](C2)N(C)CC[C@]314 [Hydrocodone, hydrocodone, reference compound]","% hydrocodone, % Ketal in hydrolysis mixture",[1]; 0 h,6.9%
same,"% hydrocodone, % Ketal in hydrolysis mixture",[1]; 0.57 h,34.3%
same,"% hydrocodone, % Ketal in hydrolysis mixture",[1]; 1.25 h,47.7%
same,"% hydrocodone, % Ketal in hydrolysis mixture",[1]; 2 h,58.2%
same,"% hydrocodone, % Ketal in hydrolysis mixture",[1]; 3 h,67.8%
same,"% hydrocodone, % Ketal in hydrolysis mixture",[1]; 4 h,74.4%
same,"Hydrocodone, 2R,5R ketal in hydrolysis mixture",[1]; 0 h,26.1
same,"Hydrocodone, 2R,5R ketal in hydrolysis mixture",[1]; 0.5 h,65.4
same,"Hydrocodone, 2R,5R ketal in hydrolysis mixture",[1]; 1.25 h,88.6
same,"Hydrocodone, 2R,5R ketal in hydrolysis mixture",[1]; 2 h,97.3
same,"Hydrocodone, 2R,5R ketal in hydrolysis mixture",[1]; 3 h,100
same,"Hydrocodone, 2R,5R ketal in hydrolysis mixture",[1]; 4 h,100
same,"Hydrocodone, 2S,5S ketal in hydrolysis mixture",[1]; 0 h,18.02
same,"Hydrocodone, 2S,5S ketal in hydrolysis mixture",[1]; 0.5 h,47.82
same,"Hydrocodone, 2S,5S ketal in hydrolysis mixture",[1]; 1.25 h,64.89
same,"Hydrocodone, 2S,5S ketal in hydrolysis mixture",[1]; 2 h,89.81
same,"Hydrocodone, 2S,5S ketal in hydrolysis mixture",[1]; 3 h,95.71
same,"Hydrocodone, 2S,5S ketal in hydrolysis mixture",[1]; 4 h,98
same,Hydrocodone in hydrolysis mixture,[2]; 0 h,1
same,Hydrocodone in hydrolysis mixture,[2]; 0.58 h,33.7
same,Hydrocodone in hydrolysis mixture,[2]; 1.25 h,45.9
same,Hydrocodone in hydrolysis mixture,[2]; 2 h,48.1
same,Hydrocodone in hydrolysis mixture,[2]; 3 h,55.1
same,Hydrocodone in hydrolysis mixture,[2]; 4 h,58.3
